We go through eleven compounds from patent US20240002393A1, “SUBSTITUTED BENZO[f][l ,2,4JTRIAZOL0[4,3-a][l ,4J[…] GABA A GAMMA! POSITIVE ALLOSTERIC MODULATORS” (Hoffmann-La Roche Inc., priority 2020, published 2024).

Structures are written as SMILES.

The target of one assay is h-GABA-A α2β2γ1 (Homo sapiens (Human), UniProt P47869+Q8N1C3). Briefly: Two-electrode voltage clamp electrophysiology in Xenopus oocytes expressing GABAA receptors. The assay is classed as cell-based. The conditions noted are these: for Efficacy (GABA)%: % modulation of GABA EC20 = 100*(Fold increase−1), compound at 30-fold Ki; for Fold increase h-GABA-A α2β2γ1 oocyte @ 30-fold Ki: GABA EC20, test compound at about 30-fold its Ki α2β2γ1, at least 3 oocytes. On the procedure:
Xenopus laevis oocytes at maturation stages V-VI were used for the expression of cloned mRNA encoding GABAA receptor subunits. Oocytes ready for RNA micro-injection were bought from Ecocyte, Castrop-Rauxel, Germany and stored in modified Barth's medium (composition in mM: NaCl 88, KCl 1, NaHCO3 2.4, HEPES 10, MgSO4 0.82, CaNO3 0.33, CaCl2 0.33, pH=7.5) at 20° C. until the experiment.
Oocytes were plated in 96-well plates for microinjection using the Roboinject automated instrument (MultiChannelSystems, Reutlingen, Germany). Approximately 50 nL of an aqueous solution containing the RNA transcripts for the subunits of the desired GABAA receptor subtype was injected into each oocyte. […] Oocytes were kept in modified Barth's medium (composition in mM: NaCl 88, KCl 1, NaHCO3 […], HEPES 10, MgSO4 0.82, CaNO3 0.33, CaCl2 0.33, pH=7.5) at 20° C. until the experiment.
Electrophysiological experiments were performed using the Roboocyte instrument (MultiChannelSystems, Reutlingen, Germany) on days 3 to 5 after the micro-injection of mRNA. During the experiment the oocytes were constantly superfused by a solution containing (in mM) NaCl 90, KCl 1, HEPES 5, MgCl2 1 CaCl2 1 (pH 7.4). Oocytes were impaled by two glass microelectrodes (resistance: 0.5-0.8 MΩ) which were filled with a solution containing KCl 1M+K-acetate 1.5 M and voltage-clamped to −80 mV. The recordings were performed at room temperature using the Roboocyte two-electrode voltage clamp system (Multichannelsystem). After an initial equilibration period of 1.5 min GABA was added for 1.5 min at a concentration evoking approximately 20% of a maximal current response (EC20). After another rest interval of 2.5 min GABA was again added evoking a response of similar amplitude and shape. […] Current traces were recorded at a digitization rate of 10 Hz during and shortly before and after the GABA application.
Each compound and concentration was tested on at least 3 oocytes. Different oocytes were used for different compound concentrations.
For the analysis, the digitized current traces of the first and second GABA response were superimposed and, if necessary, rescaled to equal maximal amplitudes. The ratio between the two responses during the time interval of test compound application was calculated point by point. The extremum of the resulting “ratio trace” was taken as the efficacy (“Fold increase”) of the compound expressed as “% modulation of GABA EC20” (100*(Fold increase−1)).

The target of assay [1] is human GABAA α1β2γ1 receptor (Homo sapiens (Human), UniProt P14867+Q8N1C3). In words: Radioligand binding assay, [3H]RO7239181 competition, γ1-containing GABAA subtypes. Particulars: HEK293F membranes, [3H]RO7239181 20-30 nM, mean of two determinations. The protocol: (§1) The affinity of compounds at GABAA γ1 subunit-containing receptors was measured by competition for [^3H]RO7239181 (67.3 Ci/mmol; Roche) binding to membranes from HEK293F cells (ThermoFisher R79007) expressing human (transiently transfected) receptors of composition α5β2γ1, α2β2γ1, α1β2γ1.
(§2) Harvested pellets from HEK293F cells expressing the different GABAA receptor subtypes were resuspended in Mannitol Buffer pH 7.2-7.4 (Mannitol 0.29M, Triethylamine 10 mM, Acetic acid 10 mM, EDTA 1 mM plus protease inhibitors (20 tablets Complete, Roche Diagnostics Cat. No. 05 056 489 001 per liter)), washed two times and then resuspended at 1:10 to 1:15 dilution in the same buffer. Cell disruption was performed by stirring the suspension in a Parr vessel #4637 at 435 psi for 15 minutes, and then the suspensions were centrifuged at 1000×g for 15 minutes at 4° C. (Beckman Avanti J-HC; rotor JS)-4.2). The supernatant (S1) was transferred in a 21 Schott flask and the pellet (P1) was resuspended with Mannitol Buffer up to 175 ml. The resuspended pellet was transferred into a 250 ml Corning centrifugal beaker and centrifuged at 1500×g for 10 minutes at 4° C. (Beckman Avanti J-HC; rotor JS)-4.2). The supernatant (S1) was then transferred in the 21 Schott flask and the pellet was discarded. The supernatants (S1) were centrifuged in 500 ml Beckman polypropylene centrifugal beaker at 15,000×g for 30 minutes at 4° C. (Beckman Avanti J-20 XP; rotor JLA-10.500). The pellet (P2) was resuspended with Mannitol Buffer 1:1 and frozen at −80° C. The supernatant (S2) was centrifuged in 100 ml Beckman polypropylene centrifugal tubes at 48000×g for 50 minutes at […] (Beckman Avanti J-20 XP; rotor JA-18). The supernatant (S3) was discarded and the pellet (P3) was resuspended with 1:1 Mannitol Buffer. The P2 and P3 protein concentration was determined with the BIORAD Standard assay method with bovine serum albumin as standard and measured on the NANO-Drop 1000. The membrane suspension was aliquots (500 μl per tube) and stored at −80° C. until required.
(§3) Membrane homogenates were resuspended and polytronised (Polytron PT1200E Kinematica AG) in Potassium Phosphate 10 mM, KCl 100 mM binding buffer at pH 7.4 to a final assay concentration determined with a previous experiment.
(§4) Assays were incubated to equilibrium for 1 hour at 4° C. and then, membranes were filtered onto unifilter (96-well white microplate with bonded GF/C filters preincubated 20-50 minutes in 0.3% Polyethylenimine) with a Filtermate 196 harvester (Packard BioScience) and washed 4 times with cold Potassium Phosphate 10 mM pH 7.4, KCl 100 mM binding buffer. After drying, filter-retained radioactivity was detected by liquid scintillation counting. K, values were calculated using Excel-Fit (Microsoft) and are the means of two determinations.

The target in assay [2] is human GABAA α2β2γ1 receptor (Homo sapiens (Human), UniProt P47869+Q8N1C3). The assay is described as above. Particulars: for Ki: HEK293F membranes, [3H]RO7239181 20-30 nM, mean of two determinations, read-out: Ki h-GABAA α2β2γ1; for γ2/γ1 Selectivity Ratio: Ki α1β3γ2 (nM)/Ki α2β2γ1 (nM); for LogSel: Log[Ki α1β3γ2 (nM)/Ki α2β2γ1 (nM)]. The protocol:
as §1, §2, §3, §4

For the compound `C[C@@H]1N=C(c2c(F)cccc2F)c2c(ccc(Cl)c2Cl)-n2c(-c3cccnn3)nnc21` [Example 56, (4S)-7,8-dichloro-6-(2,6-difluorophenyl)-4-methyl-1-pyridazin-3-yl-4H-[1,2,4]triazolo[4,3-a][1,4]benzodiazepine], on h-GABA-A α2β2γ1, the “Efficacy (GABA)%” value is 78% and the “Fold increase h-GABA-A α2β2γ1 oocyte @ 30-fold Ki” value worked out at 1.78. The Ki (commonly a measure of affinity in units of concentration, obtained from inhibition or displacement) in assay [1] was found to be 0.0038 µM. For the same compound, in assay [2], the inhibition constant (Ki) came out at 0.0046 µM, the “γ2/γ1 Selectivity Ratio” value is listed as 186.8 and the LogSel was 2.27.

`C[C@@H]1N=C(c2ncccc2F)c2c(ccc(Cl)c2Cl)-n2c(-c3cccnn3)nnc21` [Example 63, (4S)-7,8-dichloro-6-(3-fluoro-2-pyridyl)-4-methyl-1-pyridazin-3-yl-4H-[1,2,4]triazolo[4,3-a][1,4]benzodiazepine]: at h-GABA-A α2β2γ1, the “Efficacy (GABA)%” value turned out to be 891% and the “Fold increase h-GABA-A α2β2γ1 oocyte @ 30-fold Ki” value is given as 9.91. Affinity in assay [1] was put at a Ki of 0.333 µM. Besides, in assay [2], the Ki amounted to 0.0394 µM, the “γ2/γ1 Selectivity Ratio” value is 103.5 and the LogSel turned out to be 2.02.

On to `C[C@@H]1N=C(c2c(F)cccc2F)c2c(ccc(Cl)c2Cl)-n2c1n[nH]c2=O` [Example 64, (4S)-7,8-dichloro-6-(2,6-difluorophenyl)-4-methyl-2,4-dihydro-[1,2,4]triazolo[4,3-a][1,4]benzodiazepin-1-one], for which, on h-GABA-A α2β2γ1, the “Efficacy (GABA)%” value is listed as 74% and the “Fold increase h-GABA-A α2β2γ1 oocyte @ 30-fold Ki” value came to 1.74. Also, the Ki in assay [1] is 0.0115 µM. In assay [2], the Ki is 0.0132 µM, the “γ2/γ1 Selectivity Ratio” value was 45.8 and the LogSel is 1.66.

With `C[C@@H]1N=C(c2ncccc2F)c2c(ccc(Cl)c2Cl)-n2c(-c3ccncn3)nnc21` [Example 66, (4S)-7,8-dichloro-6-(3-fluoro-2-pyridyl)-4-methyl-1-pyrimidin-4-yl-4H-[1,2,4]triazolo[4,3-a][1,4]benzodiazepine], at h-GABA-A α2β2γ1, the “Efficacy (GABA)%” value worked out at 143% and the “Fold increase h-GABA-A α2β2γ1 oocyte @ 30-fold Ki” value stood at 2.43. In addition, the affinity in assay [1] corresponds to a Ki of 0.231 µM. Also, in assay [2], the Ki is 0.0978 µM, the “γ2/γ1 Selectivity Ratio” value worked out at 33.5 and the LogSel is 1.53.

Turning to `C[C@@H]1N=C(c2ncccc2F)c2c(ccc(Cl)c2Cl)-n2c(-c3cnn(C)c3)nnc21` [Example 67, (4S)-7,8-dichloro-6-(3-fluoro-2-pyridyl)-4-methyl-1-(1-methylpyrazol-4-yl)-4H-[1,2,4]triazolo[4,3-a][1,4]benzodiazepine], on h-GABA-A α2β2γ1, the “Efficacy (GABA)%” value amounted to 69% and the “Fold increase h-GABA-A α2β2γ1 oocyte @ 30-fold Ki” value was 1.69. In addition, the Ki in assay [1] was 0.188 µM. Further, in assay [2], the Ki was 0.0265 µM, the “γ2/γ1 Selectivity Ratio” value is listed as 53.5 and the LogSel is recorded as 1.73.

Regarding `C[C@@H]1N=C(c2ncccc2F)c2c(ccc(Cl)c2Cl)-n2c(C3CC3)nnc21` [Example 68, (4S)-7,8-dichloro-1-cyclopropyl-6-(3-fluoro-2-pyridyl)-4-methyl-4H-[1,2,4]triazolo[4,3-a][1,4]benzodiazepine], at h-GABA-A α2β2γ1, the “Efficacy (GABA)%” value was found to be 109% and the “Fold increase h-GABA-A α2β2γ1 oocyte @ 30-fold Ki” value came out at 2.09. This compound also showed a Ki in assay [1] of 0.359 µM. Further, in assay [2], the Ki was found to be 0.0388 µM, the “γ2/γ1 Selectivity Ratio” value was 27.4 and the LogSel worked out at 1.44.

Turning to `C[C@@H]1N=C(c2c(F)cccc2F)c2c(ccc(Cl)c2Br)-n2c(-c3cccnn3)nnc21` [Example 73, (4S)-7-bromo-8-chloro-6-(2,6-difluorophenyl)-4-methyl-1-(pyridazin-3-yl)-4H-benzo[f][1,2,4]triazolo[4,3-a][1,4]diazepine], at h-GABA-A α2β2γ1, the “Efficacy (GABA)%” value is given as 105% and the “Fold increase h-GABA-A α2β2γ1 oocyte @ 30-fold Ki” value is on record as 2.05. This compound also displayed a Ki in assay [1] of 0.0235 µM. For the same compound, in assay [2], the inhibition constant (Ki) is 0.0088 µM, the “γ2/γ1 Selectivity Ratio” value worked out at 87.5 and the LogSel came out at 1.94.

In the case of `C[C@@H]1N=C(c2c(F)cccc2F)c2c(ccc(Cl)c2Br)-n2c(-c3ccncn3)nnc21` [Example 74, (4S)-7-bromo-8-chloro-6-(2,6-difluorophenyl)-4-methyl-1-pyrimidin-4-yl-4H-[1,2,4]triazolo[4,3-a][1,4]benzodiazepine], at h-GABA-A α2β2γ1, the “Efficacy (GABA)%” value stood at 62% and the “Fold increase h-GABA-A α2β2γ1 oocyte @ 30-fold Ki” value turned out to be 1.62. In assay [1], this compound returned an inhibition constant (Ki) of 0.0283 µM. Moreover, in assay [2], the Ki was found to be 0.0173 µM, the “γ2/γ1 Selectivity Ratio” value worked out at 107.6 and the LogSel was determined as 2.03.

Turning to `Cc1nnc2n1-c1ccc(Br)c(Cl)c1C(c1c(F)cccc1F)=N[C@H]2C` [Example 75, (4S)-8-bromo-7-chloro-6-(2,6-difluorophenyl)-1,4-dimethyl-4H-[1,2,4]triazolo[4,3-a][1,4]benzodiazepine], on h-GABA-A α2β2γ1, the “Efficacy (GABA)%” value is 57% and the “Fold increase h-GABA-A α2β2γ1 oocyte @ 30-fold Ki” value was determined as 1.57. In addition, in assay [1], the inhibition constant Ki came out at 0.0083 µM. In assay [2], the Ki is 0.0053 µM, the “γ2/γ1 Selectivity Ratio” value worked out at 38.0 and the LogSel is on record as 1.58.

`C[C@@H]1N=C(c2c(F)cccc2F)c2c(ccc(Cl)c2Br)-n2c(-c3cnn(C)c3)nnc21` [Example 76, (4S)-7-bromo-8-chloro-6-(2,6-difluorophenyl)-4-methyl-1-(1-methylpyrazol-4-yl)-4H-[1,2,4]triazolo[4,3-a][1,4]benzodiazepine]: at h-GABA-A α2β2γ1, the “Efficacy (GABA)%” value is recorded as 52% and the “Fold increase h-GABA-A α2β2γ1 oocyte @ 30-fold Ki” value turned out to be 1.52. The same compound had an inhibition constant (Ki) in assay [1] of 0.0446 µM. In assay [2], the Ki is 0.0249 µM, the “γ2/γ1 Selectivity Ratio” value stood at 21.3 and the LogSel turned out to be 1.33.

For `Cc1nnc2n1-c1ccc(Cl)c(Br)c1C(c1c(F)cccc1F)=N[C@H]2C` [Example 80, (4S)-7-bromo-8-chloro-6-(2,6-difluorophenyl)-1,4-dimethyl-4H-[1,2,4]triazolo[4,3-a][1,4]benzodiazepine], on h-GABA-A α2β2γ1, the “Efficacy (GABA)%” value was 59% and the “Fold increase h-GABA-A α2β2γ1 oocyte @ 30-fold Ki” value is 1.59. Besides, in assay [1], the inhibition constant (Ki) was 0.0426 µM. Besides, in assay [2], the inhibition constant Ki turned out to be 0.0236 µM, the “γ2/γ1 Selectivity Ratio” value is given as 45.3 and the LogSel was 1.66.
